Test: mn = molality of the nth substance listed, in mol/kg
Settings: for surface tension liquid-gas: Pendant drop shape; for electrical conductivity: 100 kPa, Liquid, Mettler Toledo inLab 710

CCCCCCCCCCCCCC[N+](C)(C)CCC[N+](C)(C)CCCCCCCCCCCCCC.[Br-].[Br-] + O
Settings	electrical conductivity, 298.15 K [S/m]	electrical conductivity, 303.15 K [S/m]	electrical conductivity, 308.15 K [S/m]	electrical conductivity, 313.15 K [S/m]	electrical conductivity, 318.15 K [S/m]	electrical conductivity, 323.15 K [S/m]	surface tension liquid-gas, 298.15 K [mN/m]
m1 = 1e-05	–	–	–	–	–	–	57.45
m1 = 2e-05	–	–	–	–	–	–	53.65
m1 = 3e-05	–	–	–	–	–	–	50.48
m1 = 4e-05	–	–	–	–	–	–	47.51
m1 = 5e-05	–	–	–	–	–	–	45.48
m1 = 6e-05	–	–	–	–	–	–	42.44
m1 = 7e-05	–	–	–	–	–	–	40.27
m1 = 8e-05	–	–	–	–	–	–	38.27
m1 = 9e-05	–	–	–	–	–	–	37
m1 = 9.3e-05	0.00212	–	0.0026	0.00309	0.00331	0.00348	–
m1 = 9.8e-05	0.00224	0.00251	0.00274	0.00324	0.00345	0.00363	–
m1 = 0.0001	–	–	–	–	–	–	35.52
m1 = 0.000104	0.00236	0.00267	0.00288	0.00343	0.00361	0.00382	–
m1 = 0.000111	0.0025	0.00283	0.00302	0.00364	0.00382	0.004	–
m1 = 0.000119	0.00264	0.003	0.00323	0.00382	0.00404	0.00422	–
m1 = 0.00012	–	–	–	–	–	–	34.27
m1 = 0.000125	0.00274	0.00311	0.00335	0.00391	0.0042	0.00441	–
m1 = 0.000132	0.00285	0.00324	0.0035	0.00407	0.00435	0.00462	–
m1 = 0.000139	0.00294	0.00337	0.00367	0.00423	0.00454	0.00486	–
m1 = 0.00014	–	–	–	–	–	–	34.18
m1 = 0.000147	0.00303	0.00351	0.00382	0.00441	0.00478	0.00512	–
m1 = 0.000156	0.00311	0.00364	0.00398	0.00463	0.00506	0.00542	–
m1 = 0.000164	0.00318	0.00373	0.00411	0.00479	0.00528	0.00565	–
m1 = 0.00017	–	–	–	–	–	–	34.06
m1 = 0.000172	0.00325	0.00381	0.00421	0.00497	0.0055	0.00593	–
m1 = 0.000182	0.00331	0.0039	0.00434	0.00513	0.00572	0.0062	–
m1 = 0.000192	0.00338	0.00399	0.00448	0.00532	0.00599	0.00651	–
m1 = 0.0002	0.00343	0.00405	0.00455	0.00542	0.00614	0.00669	33.81
m1 = 0.000208	0.00348	0.00412	0.00464	0.00552	0.00628	0.00688	–
m1 = 0.000217	0.00352	0.00418	0.00471	0.00564	0.00642	0.00704	–
m1 = 0.000227	0.00358	0.00426	0.00479	0.00574	0.00656	0.0072	–
m1 = 0.000238	0.00365	0.00434	0.00488	0.00582	0.0067	0.00737	–
m1 = 0.00025	0.00372	0.00443	0.00498	0.00594	0.00684	0.00754	–
m1 = 0.0003	–	–	–	–	–	–	33.92
